One substance from patent US20170362590A1, “PHARMACEUTICAL COMPOSITIONS COMPRISING MICRORNA” (OREGON HEALTH & SCIENCE UNIVERSITY, priority 2016, published 2017) can be followed below.

Data set [1] has as its system 3'-UTRs of MRE11a, RAD50, and NBN. Kind of data set: 3'-UTR luciferase reporter assay in HEK-293T cells. Particulars: 24 hours cotransfection. It is filed as cell-based, human. The protocol:
To determine targets of miR-99b and miR-494, the RNAs were ectopically expressed in HUVECs. Targets were analyzed using a DNA damage array 24 hours after transfection. Three common targets for miR-99b and miR-494 were identified: MRE11a, RAD50 and NBN. These three proteins form the MRN complex which is involved in homologous repair and non-homologous end joining. mRNA targets of miR-494 and miR-99b were also assessed using a miR-TRAP assay. […] Finally, the 3′-UTRs of MRE11a, RAD50, and NBN were cloned into luciferase reporter vectors. The luciferase vectors were contrasfected with miR-494 and miR99b into HEK-293T cells for 24 hours.
MRE11a Luciferase-3-UTR plasmid was purchased from SwitchGear Genomics. RAD50 and NBN luciferase constructs were purchased as pmiR-REPORT vector (Ambion). Luciferase assay reagents were purchased from Switch Gear Genomics and Promega.
Cells were transfected at 50-60% confluence using standard forward transfection protocols using RNAimax reagent (Life Technologies) for miRs/siRNAs and Lipofectamine 2000 for plasmid or plasmid RNA dual transfections. Typically 50 nM RNA and […] plasmid DNA were used for transfections. Target protectors were transfected at a concentration of 50 nM or equivalent to the miR amounts.

Data set [2] relates to telomerase activity in HUVEC. Kind of data set: Telomerase activity assay. Type of data set: cell-based, human. The following applies: 48 hours of ectopic expression. The protocol: […] Cells were lysed and processed according to the manufacturer's instructions (Quantitative Telomerase Detection Kit, Allied Biotech). The telomerase activity in the cell extract was determined through its ability to synthesize telomeric repeats onto an oligonucleotide substrate. The resulting products were subsequently amplified using the polymerase chain reaction (PCR).

Regarding “miR-494: Human miR-494-3p (SEQ ID NO: 1), used as miR mimic; in vivo delivered in 7C1 nanoparticles (sense UGAAACAUACACGGGAAACCUC; delivered in vivo in 7C1 nanoparticles, further chemistry not given here; listed as Homo sapiens)”, the “luciferase expression from 3'-UTR reporter vectors” value in data set [1] is “Significantly less luciferase expression”. For the same substance, the telomerase activity result in data set [2] was “Impaired telomerase activity”; in data set [2] (listed as miR-494-3p), “impairing telomerase function”.
